# From patent US8715714B2, “Uses of rare earth elements for hair improvement” (Micellbio Co., Ltd., priority 2006, dated 2014)
# “Also recorded” adds a separate entry of the source.
# What was measured:
# Assay type in all cases: cell-based
# tyrosinase [1] = biological target: T1, tyrosinase (Homo sapiens, UniProt P14679); assay: Activity of tyrosinase in Sk-mel-31 cells; conditions: 10 μg to 1 pg, versus control group, FIG. 7
# T1 sequence (P14679 19-529): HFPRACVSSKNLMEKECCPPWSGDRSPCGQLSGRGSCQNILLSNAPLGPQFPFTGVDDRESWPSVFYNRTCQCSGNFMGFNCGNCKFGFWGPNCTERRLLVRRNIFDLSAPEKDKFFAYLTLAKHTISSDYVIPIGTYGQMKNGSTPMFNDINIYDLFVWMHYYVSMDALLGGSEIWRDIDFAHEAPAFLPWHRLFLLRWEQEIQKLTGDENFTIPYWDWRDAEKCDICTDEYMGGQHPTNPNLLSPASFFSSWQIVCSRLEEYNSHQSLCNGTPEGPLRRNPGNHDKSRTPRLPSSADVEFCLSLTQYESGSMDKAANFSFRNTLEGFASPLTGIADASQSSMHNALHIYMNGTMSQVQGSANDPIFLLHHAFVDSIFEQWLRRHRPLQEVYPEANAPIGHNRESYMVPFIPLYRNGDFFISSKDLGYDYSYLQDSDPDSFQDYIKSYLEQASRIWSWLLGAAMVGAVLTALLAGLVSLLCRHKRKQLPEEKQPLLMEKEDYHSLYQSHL
# Procedure: (§1) In order to evaluate the effect of promoting black hair formation, the activity of tyrosinase was measured in Sk-mel-31, a human melanoma cell, and B16F10, a mouse melanoma cell. The cells were cultivated in an incubator at 37° C. (5% CO2 and 60% relative humidity) while maintaining a density of 1×10^6 cells/ml for Sk-mel-31 and 2×10^5 cells/ml for B16F10 in RPMI-1640 medium (containing 1% penicillin-streptomycin and 10% fetal bovine serum). The cells were stabilized in the incubator for 24 hours, and the culture medium containing FBS was replaced by FBS-free RPMI-1640. The cells were treated with mixed rare earth elements of 10 μg, 1 μg, 100 ng, 10 ng, 1 ng, 100 pg, […] and 1 pg, respectively, and individual rare earth elements of 10 ng. In order to measure the activity of tyrosinase, the cells were cultivated for a given time, centrifuged (100×g) for 10 minutes, and harvested. […] The cells were placed in an ice bath for one hour, and centrifuged with 40,000×g at 4° C. for 20 minutes to obtain a cell extract. 130 μl of 5 mM L-DOPA (L-3,4-dihydroxyphenylalanine) and 120 μl of 25 mM MBTH (3-methyl-2-benzothiazolinone hydrazone) were added to 250 μl of an analysis buffer containing 100 mM potassium phosphate (pH 7.1), 4% N,N-dimethylformamide and 0.1% (v/v) Triton X-100, and reacted in a thermostat at 37° C. for 5 minutes, and then, 100 μg of the cell extract was added thereto, and further reacted for 2 hours. Then, 500 μl of 1 M perchloric acid was added thereto and the mixture was centrifuged with 9,000×g at room temperature for 20 minutes. Then, the supernatant was taken and absorbance was measured at 505 nm.
# tyrosinase [2] = biological target: T2, tyrosinase (Mus musculus, UniProt P11344); assay: Activity of tyrosinase in B16F10 cells; conditions: 10 μg to 1 pg, versus control group, FIG. 8
# T2 sequence (P11344 19-533): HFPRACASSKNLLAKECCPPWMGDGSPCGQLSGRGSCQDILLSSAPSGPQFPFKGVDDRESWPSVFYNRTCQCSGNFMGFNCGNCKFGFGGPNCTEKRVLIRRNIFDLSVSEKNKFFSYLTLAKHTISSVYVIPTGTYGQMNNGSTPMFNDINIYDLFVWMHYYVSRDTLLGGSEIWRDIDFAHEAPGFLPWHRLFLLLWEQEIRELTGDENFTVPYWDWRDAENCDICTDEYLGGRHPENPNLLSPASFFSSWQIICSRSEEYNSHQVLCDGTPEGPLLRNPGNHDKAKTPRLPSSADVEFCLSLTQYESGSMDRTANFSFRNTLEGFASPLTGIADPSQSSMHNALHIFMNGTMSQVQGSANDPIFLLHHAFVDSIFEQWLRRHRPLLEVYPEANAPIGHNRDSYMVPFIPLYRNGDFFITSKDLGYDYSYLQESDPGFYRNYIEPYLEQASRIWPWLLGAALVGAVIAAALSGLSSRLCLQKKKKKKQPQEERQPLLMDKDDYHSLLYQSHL
# Procedure: as §1
# [3] = system: Mouse embryo fibroblasts NIH 3T3; assay: MTT cell proliferation assay in NIH 3T3 fibroblasts
# Procedure: Mouse embryo fibroblasts NIH 3T3 were cultivated in an incubator at 37° C. ([…], 5% CO2 and 60% humidity) while maintaining a density of 2×10^6 or 4×10^6 cells/ml in Dulbecco's modified Eagle's media (DMEM) supplemented with 10% fetal bovine serum (FBS) and 1% penicillin-streptomycin. Cell proliferation was measured by using MTT [3-(3,5-dimethyl-thiazol-2-yl)-2,5-diphenyltetrazolium bromide] assay. For MTT assay, the cells were plated in a 96-well plate at 2×10^3 cells/ml per well, and treated with a culture medium supplemented with 10% FBS. The cells were stabilized in the incubator for 24 hours, the culture medium supplemented with FBS was replaced by FBS-free DMEM, and the cells were treated with mixed rare earth elements of 10 μg, 1 μg, 100 ng, 10 ng, 1 ng, 100 pg, 10 pg and 1 pg, respectively, and individual rare earth elements of 10 ng. Then, the cells were cultivated for a given time, 50 μl per well of MTT (2 mg/l ml sterilized distilled water) was added thereto, and the mixture was reacted for 4 hours. The reaction mixture was treated with DMSO (dimethyl sulfoxide) and shaken for 30 minutes. Absorbance was measured at 540 nm using an ELISA reader (550, Bio-rad).
# [4] = system: B16F10, a mouse melanoma cell; assay: Melanin production in B16F10 cells; conditions: mouse melanoma cell line; versus control group; FIG. 10
# Procedure: (§2) Cells were cultivated according to the same process as in Experimental Example 6, and centrifuged (100×g) for 10 minutes to harvest the cells. In order to measure the production of melanin, 200 μg of the cell extract was added to 1 N NaOH (total 1 ml), allowed to stand at room temperature for 30 minutes, and then, absorbance was measured at 400 nm.
# (§3) In order to measure the production of melanin, the cells were cultivated and harvested according to the same process as that of Experimental Example 6, and the production of melanin was measured according to the same process as that of Experimental Example 8.
# tyrosinase [5] = assay: Expression of tyrosinase in Sk-mel-31 cells by Western blotting; conditions: human melanoma cell line; versus control group; FIG. 9
# Procedure: (§4) Cells were cultivated according to the same process as in Experimental Example 6, and centrifuged (100×g) for 10 minutes to harvest the cells. In order to measure the expression of tyrosinase by Western blotting, 100 μg of the cell extract was resolved on 10% SDS-PAGE, transferred to NC, and then, blocked with TBS containing 5% skim milk. Then, it was reacted with a primary antibody diluted to 1:2,500 (monoclonal anti-tyrosine hydroxylase clone Th-2) and a secondary antibody diluted to 1:5,000 (anti-mouse IgG), respectively, and washed with TBS containing 0.2% Tween-20, and then, photosensitized on an X-ray film using an ECL detection kit. Then, OD values were graphed using an image analysis program of LabWork™ (version 4.4.00.0).
# [6] = system: Sk-mel-31, a human melanoma cell; assay: Melanin production in Sk-mel-31 cells; conditions: human melanoma cell line; versus control group; FIG. 10
# Procedure: as §2, §3
# tyrosinase [7] = assay: Expression of tyrosinase in B16F10 cells by Western blotting; conditions: mouse melanoma cell line; versus control group; FIG. 9
# Procedure: as §4
SMILES,tyrosinase activity (tyrosinase [1]),tyrosinase activity (tyrosinase [2]),"cell proliferation compared with the non-treated group ([3]; 10 μg to 1 pg, FIG. 1)","cell proliferation compared with the non-treated group ([3]; 10 μg to 1 pg, FIG. 1, maximum)","cell proliferation compared with the non-treated group ([3]; each element of 10 ng, FIG. 2)",melanin production [4],expression of tyrosinase (tyrosinase [5]),melanin production [6],expression of tyrosinase (tyrosinase [7])
"[Ce] [Ce, cerium]",increased; also recorded: substantially the same effect as mixed rare earth elements; also recorded: most greatly increased,increased; also recorded: substantially the same effect as mixed rare earth elements; also recorded: most greatly increased,increased,up to 1.69 times,most greatly increased,substantially the same effect; also recorded: most greatly increased,substantially the same effect; also recorded: most greatly increased,–,–
"[Pr] [Pr, praseodymium]",substantially the same effect as mixed rare earth elements,substantially the same effect as mixed rare earth elements,–,–,–,substantially the same effect,substantially the same effect,substantially the same effect,substantially the same effect
"[Dy] [Dy, dysprosium]",substantially the same effect as mixed rare earth elements,substantially the same effect as mixed rare earth elements,–,–,–,substantially the same effect,substantially the same effect,substantially the same effect,substantially the same effect
"[Ho] [Ho, holmium]",substantially the same effect as mixed rare earth elements,substantially the same effect as mixed rare earth elements,–,–,–,substantially the same effect,substantially the same effect,substantially the same effect,substantially the same effect
"[Sc] [Sc, scandium]",substantially the same effect as mixed rare earth elements,substantially the same effect as mixed rare earth elements,–,–,–,substantially the same effect,substantially the same effect,substantially the same effect,substantially the same effect
"[Tm] [Tm, thulium]",substantially the same effect as mixed rare earth elements,substantially the same effect as mixed rare earth elements,–,–,–,substantially the same effect,substantially the same effect,substantially the same effect,substantially the same effect
"[Yb] [Yb, ytterbium]",substantially the same effect as mixed rare earth elements,substantially the same effect as mixed rare earth elements,–,–,–,substantially the same effect,substantially the same effect,substantially the same effect,substantially the same effect
"[Er] [Er, erbium]",substantially the same effect as mixed rare earth elements,substantially the same effect as mixed rare earth elements,–,–,–,substantially the same effect,substantially the same effect,substantially the same effect,substantially the same effect
"[Tb] [Tb, terbium]",substantially the same effect as mixed rare earth elements,substantially the same effect as mixed rare earth elements,–,–,–,substantially the same effect,substantially the same effect,substantially the same effect,substantially the same effect
"[Y] [Y, yttrium]",substantially the same effect as mixed rare earth elements,substantially the same effect as mixed rare earth elements,–,–,–,substantially the same effect,substantially the same effect,substantially the same effect,substantially the same effect
"[Pm] [Pm, promethium]",substantially the same effect as mixed rare earth elements,substantially the same effect as mixed rare earth elements,–,–,–,substantially the same effect,substantially the same effect,substantially the same effect,substantially the same effect
